How the values were obtained:
[1] = target: Poly [ADP-ribose] polymerase 1 (Homo sapiens, UniProt P09874); experiment: Inhibition of PARP1 (unknown origin) incubated for 1 hr by ELISA
[2] = target: Cyclin-dependent kinase 9 (Homo sapiens, UniProt P50750)
Description: Inhibition of CDK9 (unknown origin) using lipid substrate incubated for 40 mins in presence of ATP by kinase-Glo plus luminescence assay

MDA-MB-231 [3] = experiment: Induction of cell cycle arrest in human MDA-MB-231 cells assessed as accumulation of cells at S phase at 1 uM incubated for 24 hrs by PI staining based flow cytometric analysis (reference value: 29.2%); type: functional
MDA-MB-231 [4] = experiment: Induction of cell cycle arrest in human MDA-MB-231 cells assessed as accumulation of cells at G2/M phase at 1 uM incubated for 24 hrs by PI staining based flow cytometric analysis (reference value: 11.3%); type: functional
[5] = Metabolic stability in artificial gastric fluid assessed as parent compound remaining at 1 mg/ml incubated for 8 hrs by HPLC analysis; type: ADME; details: read-out: Stability
MCF7 = experiment: cells; details: Homo sapiens, MCF7, 48 h
Description: Antiproliferative activity against human MCF7 cells assessed as inhibition of cell proliferation incubated for 48 hrs by CCK-8 assay

MDA-MB-231 [6] = experiment: Induction of cell cycle arrest in human MDA-MB-231 cells assessed as accumulation of cells at G1 phase at 1 uM incubated for 24 hrs by PI staining based flow cytometric analysis (reference value: 58.1%); type: functional
[7] = Metabolic stability in rat liver microsomes assessed as half life at 1 mg/ml incubated for 60 min in presence of NADPH by HPLC analysis; type: ADME, Microsome
MOLM-13 = experiment: Antiproliferative activity against human MOLM-13 cells assessed as inhibition of cell proliferation incubated for 48 hrs by CCK-8 assay; type: functional, cell-based; details: MOLM-13, 48 h
MDA-MB-231 [8] = experiment: Induction of apoptosis in human MDA-MB-231 cells assessed as viable cell at 1 uM incubated for 24 hrs by Annexin V-FITC/PI staining based analysis (reference value: 96.3 %); type: functional
MDA-MB-231 [9] = experiment: Induction of apoptosis in human MDA-MB-231 cells assessed as necrotic cell at 1 uM incubated for 24 hrs by Annexin V-FITC/PI staining based analysis (reference value: 0.10 %); type: functional
MDA-MB-231 [10] = experiment: cells; details: Homo sapiens, MDA-MB-231, 48 h
Description: Antiproliferative activity against human MDA-MB-231 cells assessed as inhibition of cell proliferation incubated for 48 hrs by CCK-8 assay

MDA-MB-231 [11] = experiment: Induction of apoptosis in human MDA-MB-231 cells assessed as early apoptotic cell at 1 uM incubated for 24 hrs by Annexin V-FITC/PI staining based analysis (reference value: 0.96 %); type: functional
MDA-MB-231 [12] = experiment: Induction of apoptosis in human MDA-MB-231 cells assessed as late apoptotic cell at 1 uM incubated for 24 hrs by Annexin V-FITC/PI staining based analysis (reference value: 2.61 %); type: functional
HeLa = experiment: cells; details: Homo sapiens, 48 h
Description: Antiproliferative activity against human HeLa cells assessed as inhibition of cell proliferation incubated for 48 hrs by CCK-8 assay

HCT-116 = experiment: cells; details: Homo sapiens, HCT-116, 48 h
Description: Antiproliferative activity against human HCT-116 cells assessed as inhibition of cell proliferation incubated for 48 hrs by CCK-8 assay

MV4-11 = experiment: Antiproliferative activity against human MV4-11 cells assessed as inhibition of cell proliferation incubated for 48 hrs by CCK-8 assay; type: functional, cell-based; details: MV4-11, 48 h
[13] = Metabolic stability in artificial intestinal fluid assessed as parent compound remaining at 1 mg/ml incubated for 8 hrs by HPLC analysis; type: ADME; details: read-out: Stability
[14] = Metabolic stability in plasma assessed as parent compound remaining incubated for 3 hrs by HPLC analysis; type: ADME, cell-free; details: read-out: Stability
[15] = target: CDK9/cyclin T1 (Homo sapiens) (UniProt O60563+P50750); details: dose 200.0 nM, time 70.0 min

Cyclin-dependent kinase 9, sequence (P50750 whole entry): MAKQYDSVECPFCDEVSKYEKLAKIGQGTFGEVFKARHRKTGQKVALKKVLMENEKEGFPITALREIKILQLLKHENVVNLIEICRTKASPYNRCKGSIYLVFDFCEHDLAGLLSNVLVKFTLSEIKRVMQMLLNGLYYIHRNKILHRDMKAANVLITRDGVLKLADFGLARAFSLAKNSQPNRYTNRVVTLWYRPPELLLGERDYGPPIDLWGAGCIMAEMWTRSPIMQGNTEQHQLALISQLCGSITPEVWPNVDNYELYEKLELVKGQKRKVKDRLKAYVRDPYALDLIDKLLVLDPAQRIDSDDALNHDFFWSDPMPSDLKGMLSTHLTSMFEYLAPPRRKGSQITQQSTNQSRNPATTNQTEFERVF
Poly [ADP-ribose] polymerase 1, sequence (P09874 whole entry): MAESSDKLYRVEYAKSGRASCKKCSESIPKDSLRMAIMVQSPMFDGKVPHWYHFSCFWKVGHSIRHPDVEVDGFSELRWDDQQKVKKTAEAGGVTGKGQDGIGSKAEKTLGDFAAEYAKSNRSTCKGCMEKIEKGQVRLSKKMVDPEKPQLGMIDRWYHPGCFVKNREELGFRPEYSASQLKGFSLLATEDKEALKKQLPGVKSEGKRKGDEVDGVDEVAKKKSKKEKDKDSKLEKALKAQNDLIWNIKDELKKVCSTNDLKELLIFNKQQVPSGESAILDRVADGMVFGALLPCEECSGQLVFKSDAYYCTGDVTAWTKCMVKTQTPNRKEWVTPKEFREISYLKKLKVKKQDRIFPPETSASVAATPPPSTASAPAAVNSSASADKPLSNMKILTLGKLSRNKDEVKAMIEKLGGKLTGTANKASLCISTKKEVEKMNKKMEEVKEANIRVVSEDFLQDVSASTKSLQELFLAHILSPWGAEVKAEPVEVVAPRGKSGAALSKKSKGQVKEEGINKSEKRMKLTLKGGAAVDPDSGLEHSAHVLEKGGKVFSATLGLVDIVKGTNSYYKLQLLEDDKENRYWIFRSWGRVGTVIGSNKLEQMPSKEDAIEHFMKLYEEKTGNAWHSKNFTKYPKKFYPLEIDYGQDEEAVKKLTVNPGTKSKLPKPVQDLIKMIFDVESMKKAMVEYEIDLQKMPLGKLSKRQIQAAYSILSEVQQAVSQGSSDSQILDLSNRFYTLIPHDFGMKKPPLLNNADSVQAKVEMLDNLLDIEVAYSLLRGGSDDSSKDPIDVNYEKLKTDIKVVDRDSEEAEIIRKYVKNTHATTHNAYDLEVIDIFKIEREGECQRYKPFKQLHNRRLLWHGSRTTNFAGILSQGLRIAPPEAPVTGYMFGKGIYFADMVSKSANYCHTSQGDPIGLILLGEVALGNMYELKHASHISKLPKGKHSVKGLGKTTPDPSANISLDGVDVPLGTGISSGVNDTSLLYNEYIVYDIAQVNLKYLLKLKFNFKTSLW

Compound	IC50 [1] [nM]	IC50 [2] [nM]	IC50 (MCF7) [nM]	IC50 (MOLM-13) [nM]	IC50 (MDA-MB-231 [10]) [nM]	IC50 (HeLa) [nM]	IC50 (HCT-116) [nM]	IC50 (MV4-11) [nM]	also measured
COc1ccc(OC)c(-c2cc(Nc3cc(CN4CCN(C(=O)c5cc(Cc6n[nH]c(=O)c7ccccc67)ccc5F)CC4)ccn3)ncn2)c1	14	315	–	–	–	–	–	–	–
COc1cc(F)ccc1-c1cc(Nc2cc(CS(C)(=N)=O)ccn2)ncc1F (centres undefined) [ENITOCICLIB]	–	–	50	80	270	200	180	110	Activity (MDA-MB-231 [3]): 29.1%; Activity (MDA-MB-231 [4]): 16.5%; remaining at 8 h, 1 mg/ml [5]: 101%; Activity (MDA-MB-231 [6]): 54.9%; half-life at 1 mg/ml [7]: 5.78 h; Activity (MDA-MB-231 [8]): 82.1%; Activity (MDA-MB-231 [9]): 3.8%; Activity (MDA-MB-231 [11]): 6.48%; Activity (MDA-MB-231 [12]): 7.66%; remaining at 8 h, 1 mg/ml [13]: 97.4%; remaining at 3 h [14]: 96%
COc1ccc(-c2cc(Nc3cc(CN4CCN(C(=O)c5cc(Cc6n[nH]c(=O)c7ccccc67)ccc5F)CC4)ccn3)ncn2)c(OC)c1	10	29	> 50000	4050	> 50000	1210	2520	1420	inhibition [15]: 73.9%
COc1cc(F)ccc1-c1cc(Nc2cc(CN3CCN(C(=O)c4cc(Cc5n[nH]c(=O)c6ccccc56)ccc4F)CC3)ccn2)ncc1F	43	17	–	–	–	–	–	–	–
COc1cc(F)ccc1-c1nc(Nc2cc(CN3CCN(C(=O)c4cc(Cc5n[nH]c(=O)c6ccccc56)ccc4F)CC3)ccn2)ncc1F	91	2350	–	–	–	–	–	–	–
O=C(c1cc(Cc2n[nH]c(=O)c3ccccc23)ccc1F)N1CCN(Cc2ccnc(Nc3cc(-c4ccc(F)c5ccoc45)ncn3)c2)CC1	107	118	–	–	–	–	–	–	–

From ChEMBL document CHEMBL6114988, “Design, synthesis and biological evaluation of dual CDK9/PARP inhibitors for the treatment of cancer” (Eur J Med Chem, 2025)
